Experimental data as given in the NIST ThermoML archive (doi:10.1021/acs.jced.5b01000).
Numbers after ± are expanded uncertainties.

Columns and labels:
[1] = xn = mol fraction of the nth substance listed; conditions: 99 kPa, Liquid; for viscosity: Capillary tube (Ostwald / Ubbelohde) method; for speed of sound: Frequency=3 MHz, Sing-around technique in a fixed-path interferometer; for mass density: Vibrating tube method
[2] = refractive index (Na D-line) (dimensionless); xn = mol fraction of the nth substance listed; conditions: 99 kPa, Liquid, Standard Abbe refractometry

CC(=O)N(C)C [N,N-dimethylethanamide] + CCO
Conditions | mass density, [1] [kg/m3] | refractive index, [2] | speed of sound, [1] [m/s] | viscosity, [1] [mPa·s]
283.15 K, x1 = 0.0524 | 811.441 ± 0.2 | 1.37246 ± 0.00035 | 1225.3 ± 1.2 | 1.369 ± 0.016
283.15 K, x1 = 0.1071 | 824.492 ± 0.2 | 1.37916 ± 0.00035 | 1254.6 ± 1.2 | 1.306 ± 0.015
283.15 K, x1 = 0.2064 | 845.481 ± 0.2 | 1.39001 ± 0.00035 | 1298 ± 1.2 | 1.229 ± 0.014
283.15 K, x1 = 0.3022 | 863.302 ± 0.2 | 1.39925 ± 0.00035 | 1334.9 ± 1.2 | 1.187 ± 0.014
283.15 K, x1 = 0.4057 | 880.337 ± 0.2 | 1.40801 ± 0.00035 | 1369.6 ± 1.2 | 1.166 ± 0.013
283.15 K, x1 = 0.5032 | 894.71 ± 0.2 | 1.41538 ± 0.00035 | 1399.5 ± 1.2 | 1.161 ± 0.013
283.15 K, x1 = 0.6016 | 907.87 ± 0.2 | 1.42196 ± 0.00036 | 1427.3 ± 1.2 | 1.16 ± 0.013
283.15 K, x1 = 0.7065 | 920.678 ± 0.2 | 1.42823 ± 0.00036 | 1454 ± 1.3 | 1.164 ± 0.013
283.15 K, x1 = 0.8013 | 931.158 ± 0.21 | 1.43325 ± 0.00036 | 1476.5 ± 1.3 | 1.17 ± 0.014
283.15 K, x1 = 0.9021 | 941.312 ± 0.21 | 1.43826 ± 0.00036 | 1498.3 ± 1.3 | 1.172 ± 0.014
283.15 K, x1 = 0.9529 | 946.061 ± 0.21 | 1.44059 ± 0.00036 | 1508.5 ± 1.3 | 1.169 ± 0.014
283.15 K, x1 = 1 | 950.131 ± 0.21 | 1.44273 ± 0.00036 | 1516.8 ± 1.3 | 1.168 ± 0.014
298.15 K, x1 = 0.0524 | 798.435 ± 0.2 | 1.36619 ± 0.00035 | 1172.1 ± 1.2 | 1.038 ± 0.012
298.15 K, x1 = 0.1071 | 811.331 ± 0.2 | 1.37281 ± 0.00035 | 1199.9 ± 1.2 | 1.003 ± 0.012
298.15 K, x1 = 0.2064 | 832.087 ± 0.2 | 1.38351 ± 0.00035 | 1242.5 ± 1.2 | 0.9558 ± 0.011
298.15 K, x1 = 0.3022 | 849.767 ± 0.2 | 1.39264 ± 0.00035 | 1277.4 ± 1.2 | 0.9319 ± 0.011
298.15 K, x1 = 0.4057 | 866.689 ± 0.2 | 1.40131 ± 0.00035 | 1312.1 ± 1.2 | 0.9212 ± 0.011
298.15 K, x1 = 0.5032 | 881.006 ± 0.2 | 1.40863 ± 0.00035 | 1341 ± 1.2 | 0.9169 ± 0.011
298.15 K, x1 = 0.6016 | 894.141 ± 0.2 | 1.41518 ± 0.00036 | 1367.9 ± 1.2 | 0.921 ± 0.011
298.15 K, x1 = 0.7065 | 906.822 ± 0.2 | 1.42135 ± 0.00036 | 1394.4 ± 1.3 | 0.9259 ± 0.011
298.15 K, x1 = 0.8013 | 917.351 ± 0.2 | 1.4264 ± 0.00036 | 1415.7 ± 1.3 | 0.9311 ± 0.011
298.15 K, x1 = 0.9021 | 927.481 ± 0.21 | 1.43136 ± 0.00036 | 1437.6 ± 1.3 | 0.9309 ± 0.011
298.15 K, x1 = 0.9529 | 932.213 ± 0.21 | 1.43367 ± 0.00036 | 1446.3 ± 1.3 | 0.9307 ± 0.011
298.15 K, x1 = 1 | 936.289 ± 0.21 | 1.43579 ± 0.00036 | 1453.7 ± 1.3 | 0.9299 ± 0.011
313.15 K, x1 = 0.0524 | 785.68 ± 0.2 | 1.35974 ± 0.00035 | 1120.6 ± 1.2 | 0.8029 ± 0.0093
313.15 K, x1 = 0.1071 | 798.43 ± 0.2 | 1.36632 ± 0.00035 | 1147.6 ± 1.2 | 0.7849 ± 0.0091
313.15 K, x1 = 0.2064 | 818.908 ± 0.2 | 1.37691 ± 0.00035 | 1188.7 ± 1.2 | 0.7611 ± 0.0089
313.15 K, x1 = 0.3022 | 836.413 ± 0.2 | 1.38598 ± 0.00035 | 1222.6 ± 1.2 | 0.7493 ± 0.0088
313.15 K, x1 = 0.4057 | 853.186 ± 0.2 | 1.39461 ± 0.00035 | 1256.3 ± 1.2 | 0.7462 ± 0.0087
313.15 K, x1 = 0.5032 | 867.418 ± 0.2 | 1.40189 ± 0.00035 | 1284.2 ± 1.2 | 0.7469 ± 0.0088
313.15 K, x1 = 0.6016 | 880.488 ± 0.2 | 1.40843 ± 0.00036 | 1310.5 ± 1.2 | 0.7516 ± 0.0088
313.15 K, x1 = 0.7065 | 893.143 ± 0.2 | 1.41463 ± 0.00036 | 1336.3 ± 1.2 | 0.7581 ± 0.0089
313.15 K, x1 = 0.8013 | 903.56 ± 0.2 | 1.41962 ± 0.00036 | 1358.5 ± 1.3 | 0.7623 ± 0.009
313.15 K, x1 = 0.9021 | 913.657 ± 0.21 | 1.4246 ± 0.00036 | 1378.5 ± 1.3 | 0.7643 ± 0.009
313.15 K, x1 = 0.9529 | 918.346 ± 0.21 | 1.42688 ± 0.00036 | 1386 ± 1.3 | 0.7651 ± 0.0091
313.15 K, x1 = 1 | 922.429 ± 0.21 | 1.42901 ± 0.00036 | 1393.3 ± 1.3 | 0.7644 ± 0.0091

CC(=O)N(C)C [N,N-dimethylethanamide] + CO
Conditions | mass density, [1] [kg/m3] | refractive index, [2] | speed of sound, [1] [m/s] | viscosity, [1] [mPa·s]
283.15 K, x1 = 0.0602 | 823.325 ± 0.2 | 1.34879 ± 0.00035 | 1204.4 ± 1.2 | 0.7266 ± 0.0085
283.15 K, x1 = 0.1088 | 838.649 ± 0.2 | 1.35969 ± 0.00035 | 1242 ± 1.2 | 0.7638 ± 0.0089
283.15 K, x1 = 0.2079 | 864.147 ± 0.2 | 1.37803 ± 0.00035 | 1305.6 ± 1.2 | 0.831 ± 0.0097
283.15 K, x1 = 0.304 | 883.509 ± 0.2 | 1.39207 ± 0.00035 | 1353.4 ± 1.2 | 0.892 ± 0.01
283.15 K, x1 = 0.4055 | 899.792 ± 0.2 | 1.40414 ± 0.00035 | 1394 ± 1.2 | 0.9491 ± 0.011
283.15 K, x1 = 0.5011 | 912.039 ± 0.2 | 1.41331 ± 0.00035 | 1424.8 ± 1.2 | 0.9971 ± 0.012
283.15 K, x1 = 0.6014 | 922.607 ± 0.2 | 1.42138 ± 0.00036 | 1450.4 ± 1.3 | 1.041 ± 0.012
283.15 K, x1 = 0.7036 | 931.645 ± 0.2 | 1.42811 ± 0.00036 | 1473.1 ± 1.3 | 1.083 ± 0.013
283.15 K, x1 = 0.803 | 938.688 ± 0.21 | 1.43369 ± 0.00036 | 1489.2 ± 1.3 | 1.117 ± 0.013
283.15 K, x1 = 0.9076 | 945.177 ± 0.21 | 1.43878 ± 0.00036 | 1505 ± 1.3 | 1.149 ± 0.013
283.15 K, x1 = 0.9502 | 947.535 ± 0.21 | 1.4407 ± 0.00036 | 1510.7 ± 1.3 | 1.158 ± 0.013
283.15 K, x1 = 1 | 950.131 ± 0.21 | 1.44273 ± 0.00036 | 1516.8 ± 1.3 | 1.168 ± 0.014
298.15 K, x1 = 0.0602 | 809.208 ± 0.2 | 1.3423 ± 0.00035 | 1154.4 ± 1.2 | 0.5868 ± 0.0069
298.15 K, x1 = 0.1088 | 824.553 ± 0.2 | 1.35319 ± 0.00035 | 1190.7 ± 1.2 | 0.6156 ± 0.0072
298.15 K, x1 = 0.2079 | 849.999 ± 0.2 | 1.37142 ± 0.00035 | 1250.8 ± 1.2 | 0.6706 ± 0.0079
298.15 K, x1 = 0.304 | 869.253 ± 0.2 | 1.38536 ± 0.00035 | 1297.1 ± 1.2 | 0.7197 ± 0.0084
298.15 K, x1 = 0.4055 | 885.574 ± 0.2 | 1.39737 ± 0.00035 | 1336 ± 1.2 | 0.764 ± 0.0089
298.15 K, x1 = 0.5011 | 897.92 ± 0.2 | 1.40652 ± 0.00035 | 1365.2 ± 1.2 | 0.8017 ± 0.0094
298.15 K, x1 = 0.6014 | 908.603 ± 0.2 | 1.41458 ± 0.00036 | 1391.2 ± 1.2 | 0.8364 ± 0.0098
298.15 K, x1 = 0.7036 | 917.769 ± 0.2 | 1.42131 ± 0.00036 | 1413.5 ± 1.3 | 0.8692 ± 0.01
298.15 K, x1 = 0.803 | 924.814 ± 0.2 | 1.42684 ± 0.00036 | 1429.2 ± 1.3 | 0.8941 ± 0.01
298.15 K, x1 = 0.9076 | 931.291 ± 0.21 | 1.43186 ± 0.00036 | 1443.4 ± 1.3 | 0.9147 ± 0.011
298.15 K, x1 = 0.9502 | 933.67 ± 0.21 | 1.43378 ± 0.00036 | 1449.2 ± 1.3 | 0.9232 ± 0.011
298.15 K, x1 = 1 | 936.289 ± 0.21 | 1.43579 ± 0.00036 | 1453.7 ± 1.3 | 0.9299 ± 0.011
313.15 K, x1 = 0.0602 | 794.82 ± 0.2 | 1.33598 ± 0.00035 | 1103.1 ± 1.2 | 0.479 ± 0.0057
313.15 K, x1 = 0.1088 | 810.116 ± 0.2 | 1.3468 ± 0.00035 | 1138.1 ± 1.2 | 0.5045 ± 0.006
313.15 K, x1 = 0.2079 | 835.563 ± 0.2 | 1.36494 ± 0.00035 | 1196.3 ± 1.2 | 0.5501 ± 0.0065
313.15 K, x1 = 0.304 | 854.874 ± 0.2 | 1.37881 ± 0.00035 | 1240.7 ± 1.2 | 0.5911 ± 0.007
313.15 K, x1 = 0.4055 | 871.236 ± 0.2 | 1.39075 ± 0.00035 | 1278.3 ± 1.2 | 0.6287 ± 0.0074
313.15 K, x1 = 0.5011 | 883.681 ± 0.2 | 1.39987 ± 0.00035 | 1306.9 ± 1.2 | 0.6592 ± 0.0078
313.15 K, x1 = 0.6014 | 894.459 ± 0.2 | 1.40791 ± 0.00036 | 1332.7 ± 1.2 | 0.689 ± 0.0081
313.15 K, x1 = 0.7036 | 903.693 ± 0.2 | 1.4146 ± 0.00036 | 1353 ± 1.2 | 0.7156 ± 0.0084
313.15 K, x1 = 0.803 | 910.885 ± 0.2 | 1.42013 ± 0.00036 | 1370.2 ± 1.3 | 0.7362 ± 0.0087
313.15 K, x1 = 0.9076 | 917.391 ± 0.21 | 1.42511 ± 0.00036 | 1383.7 ± 1.3 | 0.7539 ± 0.0089
313.15 K, x1 = 0.9502 | 919.775 ± 0.21 | 1.42701 ± 0.00036 | 1388.9 ± 1.3 | 0.7607 ± 0.009
313.15 K, x1 = 1 | 922.429 ± 0.21 | 1.42901 ± 0.00036 | 1393.3 ± 1.3 | 0.7644 ± 0.0091
